Experimental data: DBAASP
Converted amounts (≈) assume the structure as drawn. “And” between values parts separate entries of the source, which are not always exact repeats. Equal entries are not always repeated.

Assays:
Experiment in all cases: ≥ marks a high value that may be exact or a test limit, other limits are often not marked, values filed in µg/mL are converted to µM
[1] = test system: Legionella pneumophila Lens
Staphylococcus aureus = test system: Staphylococcus aureus
Streptococcus sanguinis = test system: Streptococcus sanguinis
[2] = test system: Escherichia coli ATCC 25922
Escherichia coli ESBL = test system: Escherichia coli ESBL
Moraxella catarrhalis = test system: Moraxella catarrhalis
[3] = test system: Staphylococcus aureus ATCC 43300
[4] = test system: Acinetobacter baumannii ATCC 19506
[5] = test system: Salmonella enterica serovar Minnesota R60
Acinetobacter baumannii = test system: Acinetobacter baumannii
[6] = test system: Pseudomonas aeruginosa CUN 4158-02
Streptococcus mutans = test system: Streptococcus mutans
Vibrio cholerae CUN 09 = test system: Vibrio cholerae CUN 09
[7] = test system: Staphylococcus aureus ATCC 25923
Burkholderia cepacia = test system: Burkholderia cepacia
Candida albicans = test system: Candida albicans
Klebsiella pneumoniae = test system: Klebsiella pneumoniae
[8] = test system: Staphylococcus aureus CUN 3792-99
[9] = test system: Bordetella bronchiseptica CUN 11844-99
[10] = test system: Pseudomonas aeruginosa ATCC 27853
Enterococcus faecium = test system: Enterococcus faecium
Escherichia coli 1005 = test system: Escherichia coli 1005
[11] = test system: Candida krusei CGMCC 2.1857
[12] = test system: Candida parapsilosis CGMCC 2.3989
[13] = test system: Staphylococcus epidermidis ATCC 12228
[14] = test system: Salmonella enterica subsp. enterica serovar Pullorum ATCC 7913
[15] = test system: Candida tropicalis CGMCC 2.1975
[16] = test system: Staphylococcus aureus ATCC 29213
[17] = test system: Salmonella enterica subsp. enterica serovar Typhimurium ATCC 14028
[18] = test system: Staphylococcus epidermidis
[19] = test system: Pseudomonas aeruginosa H547
[20] = test system: Staphylococcus haemolyticus
[21] = test system: Enterobacter cloacae C601
[22] = test system: Pseudomonas aeruginosa K799
[23] = test system: Acinetobacter calcoaceticus C402
[24] = test system: Staphylococcus aureus K147
[25] = test system: Pseudomonas aeruginosa Z61
Escherichia coli KF130 = test system: Escherichia coli KF130
[26] = test system: Enterococcus faecalis ATCC 29212
[27] = test system: Salmonella enterica subsp. enterica serovar Typhimurium ATCC 14028s
[28] = test system: Pseudomonas aeruginosa H744
[29] = test system: Mycobacterium tuberculosis H37Rv
Candida albicans CAN105 = test system: Candida albicans CAN105
[30] = test system: Stenotrophomonas maltophilia ATCC 13637
[31] = test system: Acinetobacter calcoaceticus ATCC 23055
[32] = test system: Enterobacter cloacae ATCC 13047
[33] = test system: Streptococcus pyogenes ATCC 19615
Escherichia coli KF111 = test system: Escherichia coli KF111
[34] = test system: Burkholderia cepacia ATCC 25416
[35] = test system: Staphylococcus aureus SAP 0017
Corynebacterium xerosis = test system: Corynebacterium xerosis
[36] = test system: Pseudomonas aeruginosa H374
[37] = test system: Enterococcus faecalis C625
[38] = test system: Listeria monocytogenes NCTC 7973
[39] = test system: Pseudomonas aeruginosa H187

With CC[C@H](C)[C@H](NC(=O)[C@H](CC(C)C)NC(=O)CNC(=O)[C@H](CCCCN)NC(=O)[C@@H](NC(=O)[C@@H](NC(=O)[C@H](CCC(=O)O)NC(=O)[C@@H](NC(=O)[C@@H](NC(=O)[C@H](CCCCN)NC(=O)[C@H](C)NC(=O)[C@@H](NC(=O)[C@@H](NC(=O)CNC(=O)[C@H](C)NC(=O)[C@@H](N)CCSC)C(C)C)[C@@H](C)CC)[C@@H](C)CC)C(C)C)[C@@H](C)CC)C(C)C)C(=O)N[C@@H](CC(=O)O)C(=O)N[C@@H](CCC(N)=O)C(=O)N[C@@H](Cc1ccccc1)C(=O)N[C@H](C(=O)N[C@@H](CCC(N)=O)C(=O)N[C@@H](CCCCN)C(=O)O)[C@@H](C)O [MAGVIAKIVEIVKGLIDQFTQK] the MIC [1] was 1.3 µM (≈ 3.12 µg/mL).

In the case of NC(=O)[C@H](Cc1ccccc1)NC(=O)[C@H](Cc1ccccc1)NC(=O)[C@H](Cc1ccccc1)NC(=O)[C@@H](N)Cc1ccccc1 [FFFF], the MIC (Staphylococcus aureus) is reported as 583 µM (≈ 353 µg/mL) and the MIC (Streptococcus sanguinis) is reported as ≥ 291 µM.

For NCCCC[C@H](NC(=O)CNC(=O)[C@H](CCCCN)NC(=O)[C@H](Cc1ccccc1)NC(=O)[C@H](CCCCN)NC(=O)[C@H](Cc1c[nH]c2ccccc12)NC(=O)[C@H](CCCN=C(N)N)NC(=O)[C@H](Cc1ccccc1)NC(=O)[C@H](CCCN=C(N)N)NC(=O)[C@H](CCCN=C(N)N)NC(=O)[C@H](Cc1ccc(O)cc1)NC(=O)[C@H](CCCCN)NC(=O)[C@H](CCCCN)NC(=O)[C@H](CS)NC(=O)CN)C(=O)N[C@@H](Cc1ccccc1)C(=O)N[C@@H](Cc1c[nH]c2ccccc12)C(=O)N[C@@H](Cc1ccccc1)C(=O)N[C@@H](Cc1c[nH]c2ccccc12)C(=O)NCC(N)=O [GCKKYRRFRWKFKGKFWFWG], the MIC [2] was 47.2 µM (≈ 128 µg/mL), the MIC (Escherichia coli ESBL) was ≥ 47.2 µM and 23.6 µM and the MIC (Moraxella catarrhalis) was 11.8 µM (≈ 32 µg/mL). The MIC [3] was 11.8 µM (≈ 32 µg/mL), the MIC [4] was ≥ 47.2 µM and the MIC [5] was 11.8 µM (≈ 32 µg/mL). For the same compound, the MIC (Acinetobacter baumannii) was ≥ 47.2 µM, the MIC [6] was ≥ 47.2 µM and the MIC (Streptococcus mutans) was 11.8 µM (≈ 32 µg/mL). For the same compound, the MIC (Vibrio cholerae CUN 09) was ≥ 94.4 µM, the MIC [7] was 11.8 µM (≈ 32 µg/mL) and the MIC (Burkholderia cepacia) was 11.8 µM (≈ 32 µg/mL). For the same compound, the MIC (Candida albicans) was 94.4 µM (≈ 256 µg/mL), the MIC (Klebsiella pneumoniae) was > 47.2 µM and the MIC [8] was ≥ 47.2 µM. The MIC [9] was 11.8 µM (≈ 32 µg/mL), the MIC [10] was 94.4 µM (≈ 256 µg/mL) and the MIC (Enterococcus faecium) was 11.8 µM (≈ 32 µg/mL).

Work on CC(C)C[C@H](NC(=O)[C@H](CCCN=C(N)N)NC(=O)[C@H](CC(C)C)NC(=O)[C@H](CC(C)C)NC(=O)[C@H](CC(C)C)NC(=O)[C@H](CCCN=C(N)N)NC(=O)[C@H](CC(C)C)NC(=O)[C@H](CCCN=C(N)N)NC(=O)[C@@H](N)CCCN=C(N)N)C(=O)N[C@@H](CCCN=C(N)N)C(=O)N[C@@H](CCCN=C(N)N)C(N)=O [RRLRLLLRLRR] yielded an MIC [3] of 8 µM (≈ 12.2 µg/mL), an MIC (Escherichia coli 1005) of 4 µM (≈ 6.08 µg/mL) and an MIC [11] of 4 µM (≈ 6.08 µg/mL). For the same compound, the MIC [12] was ≥ 64 µM, the MIC [13] was 4 µM (≈ 6.08 µg/mL) and the MIC [14] was 2 µM (≈ 3.04 µg/mL). It also gave an MIC [15] of 2 µM (≈ 3.04 µg/mL), an MIC [7] of 4 µM (≈ 6.08 µg/mL) and an MIC [16] of 16 µM (≈ 24.3 µg/mL). For the same compound, the MIC (Candida albicans) was 4 µM (≈ 6.08 µg/mL) and the MIC [17] was 4 µM (≈ 6.08 µg/mL).

CC[C@H](C)[C@H](NC(=O)[C@H](CC(C)C)NC(=O)[C@@H]1CCCN1C(=O)[C@H](CCCCN)NC(=O)[C@H](C)NC(=O)[C@@H](NC(=O)[C@@H](NC(=O)[C@@H](NC(=O)[C@@H](NC(=O)[C@H](CCCCN)NC(=O)[C@H](CCCCN)NC(=O)[C@H](C)NC(=O)[C@H](C)NC(=O)[C@H](CO)NC(=O)[C@@H](NC(=O)[C@H](CC(C)C)NC(=O)[C@H](CCCCN)NC(=O)[C@H](CCCCN)NC(=O)[C@@H](NC(=O)[C@H](Cc1ccccc1)NC(=O)[C@H](CO)NC(=O)[C@H](CCCCN)NC(=O)[C@H](Cc1c[nH]c2ccccc12)NC(=O)[C@@H](N)CCCCN)[C@@H](C)CC)[C@@H](C)O)C(C)C)C(C)C)[C@@H](C)O)[C@@H](C)O)C(=O)N[C@@H](CO)C(=O)N[C@@H](CO)C(=O)O [KWKSFIKKLTSAAKKVVTTAKPLISS] showed an MIC [18] of 11.2 µM (≈ 32 µg/mL), an MIC [19] of 1.4 µM (≈ 4 µg/mL) and an MIC [20] of 22.4 µM (≈ 64 µg/mL). The MIC [21] was 2.8 µM and 1.4 µM, the MIC [22] was 1.4 µM (≈ 4 µg/mL) and the MIC [23] was 2.8 µM and 1.4 µM. For the same compound, the MIC [24] was 22.4 µM (≈ 64 µg/mL), the MIC [25] was 1.05 µM (≈ 3 µg/mL) and the MIC (Escherichia coli KF130) was 0.349 µM (≈ 1 µg/mL). The MIC [26] was > 22.4 µM, the MIC [27] was 1.05 µM (≈ 3 µg/mL) and the MIC [28] was 0.699 µM (≈ 2 µg/mL). The MIC [29] was 0.734 µM (≈ 2.1 µg/mL), the MIC (Candida albicans CAN105) was 22.4 µM (≈ 64 µg/mL) and the MIC [7] was 22.4 µM (≈ 64 µg/mL). The MIC [30] was 0.699 µM (≈ 2 µg/mL), the MIC [31] was 0.699 µM (≈ 2 µg/mL) and the MIC [32] was 0.699 µM (≈ 2 µg/mL). It also gave an MIC [33] of 5.59 µM (≈ 16 µg/mL), an MIC (Escherichia coli KF111) of 0.699 µM (≈ 2 µg/mL) and an MIC [34] of 22.4 µM (≈ 64 µg/mL). For the same compound, the MIC [35] was 22.4 µM (≈ 64 µg/mL), the MIC (Corynebacterium xerosis) was 0.349 µM (≈ 1 µg/mL) and the MIC [36] was 0.699 µM (≈ 2 µg/mL). For the same compound, the MIC [10] was 2.8 µM and 4 µM, the MIC [37] was 5.59 µM and 11.2 µM and the MIC [38] was 5.59 µM (≈ 16 µg/mL). For the same compound, the MIC [39] was 11.2 µM (≈ 32 µg/mL).
